# Reference: patent US20250236589A1, “THERAPEUTIC PHENETHYLAMINE COMPOSITIONS AND METHODS OF USE” (Cybin IRL Limited, priority 2022, published 2025)
# Like-named read-outs stand apart in the source and are kept apart here. Marks after values point to notes of the source that are not given here.
# What was measured:
# [1] = Plasma and brain concentrations after dosing in mice (screening); format: in vivo, mouse; details: for concentration at 15 min / concentration at 160 min / Kp at 160 min: mouse; for concentration at 15 min / concentration at 160 min: sc, mice, 3 mg/kg s.c.; for Kp at 160 min: brain/plasma, subcutaneous, 3 mg/kg, read-out: brain/plasma ratio, 160 min
# [2] = tested on: mice; test: Head-twitch response (HTR) screening in mice; format: in vivo, mouse
# Description: Protocols were followed according to Canal C E, Morgan D. Head-twitch response in rodents induced by the hallucinogen 2,5-dimethoxy-4-iodoamphetamine: a comprehensive history, a re-evaluation of mechanisms, and its utility as a model. […] Mice were housed in standard laboratory cages with ad libitum access to food and water and were acclimated to the vivarium for at least one week prior to testing in a procedure room. In a typical experiment, mice were injected 3 mg/kg of test article subcutaneously. Mice were placed immediately thereafter in a clear, polycarbonate box (46×20×20 cm), and HTRs were counted at various time points after administration using hand-held tally counters. In a separate experiment, plasma and brain samples were collected at 15 and 160 minutes after administration of test compounds to measure plasma and brain concentrations. Quantification was performed using LC-MS/MS method (LLOQ, 9 nM).
# [3] = target: 5-HT1A receptors (Homo sapiens (Human), UniProt P08908); test: 5-HT1A radioligand binding ([3H]8-OH-DPAT)
# Description: In another series of 5-HT1A,2A,2B radioligand competition binding assays, the conditions were as follows: For 5-HT1A assays, cell membrane homogenates (˜30 μg protein) derived from HEK-293 cells expressing human 5-HT1ARs were incubated with 0.5 nM [^3H]8-hydroxy-2-(di-n-propylamino)tetralin ([^3H]8-OH-DPAT) for 60 min at room temperature in the presence or absence of the test article. Non-specific binding was determined in the presence of 10 μM 8-OH-DPAT. Samples were then analyzed as described above, with only immaterial differences. […] Samples were then analyzed as described above.
# [4] = target: T1, 5-HT2A receptor (Homo sapiens (Human), UniProt P28223); test: 5-HT2A functional assay, IP1 (IPOne); format: cell-based
# Description: After incubation, cells were lysed and fluorescence acceptor and donor were added. FRET was measured after 60 min at room temperature using a microplate reader (Envision, Perkin Elmer). TRUPATH assays followed a similar workflow, except that different reagents were used, and LiCl was not included in the samples; the protocol was based on the report by Olsen, R. H. J. et al., cited above.
# [5] = target: human 5-HT2B receptor (Homo sapiens (Human), UniProt P41595); test: 5-HT2B functional assay, IP1 (IPOne); format: cell-based
# Description: 5-HT2A,2B,2C receptor-mediated Gq activation—canonical signaling pathways—[phosphoinositide hydrolysis leading to the production of inositol phosphate 1 (IP1, IPOne, Cisbio assay) or direct G-protein activation using TRUPATH technology]were measured as previously described (Porter, R. H. P., Benwell, K. R., Lamb, H., Malcolm, C. S., Allen, N. F., Revell, D. F., Adams, D. R. and Sheardown, M. J., 1999, Functional characterization of agonists at recombinant human 5-HT2a, 5HT2b and 5-HT2c receptors in CHO-K1 cells, Brit J Pharmacol 128, 13; Olsen, R. H. J., DiBerto, J. F., English, J. G. et al. TRUPATH, an open-source biosensor platform for interrogating the GPCR transducerome. […] Briefly, for the IPOne assay, for 5-HT2ARs, CHO-K1 or HEK-293 cells were incubated with test articles and 5-HT (positive control) in stimulation buffer containing LiCl. After incubation, cells were lysed and fluorescence acceptor and donor were added. FRET was measured after 60 min at room temperature using a microplate reader (Envision, Perkin Elmer). TRUPATH assays followed a similar workflow, except that different reagents were used, and LiCl was not included in the samples; the protocol was based on the report by Olsen, R. H. J. et al., cited above.
# [6] = target: T1, 5-HT2A receptor; test: 5-HT2A radioligand competition binding ([3H]LSD or [3H]ketanserin)
# [7] = cited from earlier work
# [8] = In vitro liver microsome stability (DLM); format: in vitro ADME; details: dog, dog liver microsomes, 0.5 mg/mL microsomes, NADPH, read-out: DLM, t1/2
# Description: (§1) In vitro stability was determined in Human (HLM), Rat (RLM), Mouse (MsLM), and dog (DLM) Liver Microsomes. All liver microsomes were purchased from a commercial supplier (e.g. XenoTech). The reaction mixture, minus NADPH, was prepared as described below. The test compound was added into the reaction mixture at a final concentration of 1 μM or co-dosed with their deuterated analog(s) at 1 μM each. The control compound, testosterone, was run simultaneously with the test compound in a separate reaction. The reaction mixture (without cofactor) was equilibrated in a shaking water bath at 37° C. for 5 minutes. The reaction was initiated by the addition of the cofactor, and the mixture was incubated in a shaking water bath at 37° C. Aliquots (150 μL) were withdrawn at 0, 5, 10, 20, 30, 60, and 120 minutes. Test compound and testosterone samples were immediately combined with 150 μL of ice-cold acetonitrile (ACN) containing 0.1% formic acid and internal standard to terminate the reaction. The samples were then mixed and centrifuged to precipitate proteins. All samples were assayed by LC-MS/MS using electrospray ionization. […] Half-lives were calculated using GraphPad software, fitting to a single-phase exponential decay equation.
# [9] = In vitro liver microsome stability (MsLM); format: in vitro ADME; details: mouse, mouse liver microsomes, 0.5 mg/mL microsomes, NADPH, read-out: MsLM, t1/2
# Description: as §1
# [10] = In vitro liver microsome stability (RLM); format: in vitro ADME; details: rat, rat liver microsomes, 0.5 mg/mL microsomes, NADPH, read-out: RLM, t1/2
# Description: In vitro stability was determined in Human (HLM), Rat (RLM), Mouse (MsLM), and dog (DLM) Liver Microsomes. All liver microsomes were purchased from a commercial supplier (e.g. XenoTech). The reaction mixture, minus NADPH, was prepared as described below. The test compound was added into the reaction mixture at a final concentration of 1 μM or co-dosed with their deuterated analog(s) at 1 μM each. The control compound, testosterone, was run simultaneously with the test compound in a separate reaction. The reaction mixture (without cofactor) was equilibrated in a shaking water bath at 37° C. for 5 minutes. The reaction was initiated by the addition of the cofactor, and the mixture was incubated in a shaking water bath at 37° C. Aliquots (150 μL) were withdrawn at 0, 5, 10, 20, 30, 60, and 120 minutes. Test compound and testosterone samples were immediately combined with 150 μL of ice-cold acetonitrile (ACN) containing 0.1% formic acid and internal standard to terminate the reaction. The samples were then mixed and centrifuged to precipitate proteins. All samples were assayed by LC-MS/MS using electrospray ionization. The peak area response ratio (PARR) of analyte to internal standard at each time point was compared to the PARR at time 0 to determine the percent remaining at each time point. Half-lives were calculated using GraphPad software, fitting to a single-phase exponential decay equation.
# [11] = target: MAO-A (Homo sapiens (Human), UniProt P21397); test: Recombinant human MAO-A activity (stability); format: in vitro ADME; details: hrMAO 0.02 mg/mL, read-out: MAO-A, t1/2
# Description: hrMAO-A and MAO control were purchased from XenoTech. The reaction mixture was prepared as described below. The test compound was added into the reaction mixture at a final concentration of 1 μM or co-dosed with their deuterated analog at 1 μM each. The positive control kynuramine (25 μM) was run simultaneously with the test compound in a separate reaction. The reaction mixture (without test compounds or kynuramine) was equilibrated in a shaking water bath at 37° C. for 5 minutes. The reaction was initiated by the addition of the test compound or kynuramine, and the mixture was incubated in a shaking water bath at 37° C. Aliquots (150 μL) of the test compound reaction mixture were withdrawn at 0, 5, 10, 20, 30, 60, and 120 minutes. Aliquots (150 μL) of the positive control reaction mixture were withdrawn at 0 and 30 minutes. Test compound(s) and kynuramine samples were immediately combined with 150 μL of ice-cold 100% acetonitrile containing 0.1% formic acid and internal standard (0.2 μM metoprolol) to terminate the reaction. The samples were then mixed and centrifuged to precipitate proteins. All samples were assayed by LC-MS/MS. The peak area response ratio (PARR) of analyte to internal standard at each time point was compared to the PARR at time 0 to determine the percent remaining at each time point. Half-lives were calculated using GraphPad software, fitting to a single-phase exponential decay equation.
# [12] = In vitro liver microsome stability (HLM); format: in vitro ADME; details: human, human liver microsomes, 0.5 mg/mL microsomes, NADPH, read-out: HLM, t1/2
# Description: as §1
# [13] = brain, read-out: Brain, 160 min
# [14] = plasma, read-out: Plasma, 160 min
# Chain of human 5-HT2B receptor (P41595 whole entry, looked up): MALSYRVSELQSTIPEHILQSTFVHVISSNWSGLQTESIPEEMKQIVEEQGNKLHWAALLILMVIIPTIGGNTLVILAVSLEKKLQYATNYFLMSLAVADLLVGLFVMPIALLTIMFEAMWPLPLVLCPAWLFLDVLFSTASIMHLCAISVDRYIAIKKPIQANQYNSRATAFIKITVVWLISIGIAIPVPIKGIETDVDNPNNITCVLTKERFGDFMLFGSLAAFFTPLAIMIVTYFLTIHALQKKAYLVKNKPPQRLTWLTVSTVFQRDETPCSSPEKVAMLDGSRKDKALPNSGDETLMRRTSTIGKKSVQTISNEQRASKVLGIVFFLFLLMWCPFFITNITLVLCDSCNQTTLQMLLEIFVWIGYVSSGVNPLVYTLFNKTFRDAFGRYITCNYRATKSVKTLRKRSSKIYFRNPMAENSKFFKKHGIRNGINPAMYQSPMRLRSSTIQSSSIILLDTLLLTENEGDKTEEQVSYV
# Chain of MAO-A (P21397 whole entry, looked up): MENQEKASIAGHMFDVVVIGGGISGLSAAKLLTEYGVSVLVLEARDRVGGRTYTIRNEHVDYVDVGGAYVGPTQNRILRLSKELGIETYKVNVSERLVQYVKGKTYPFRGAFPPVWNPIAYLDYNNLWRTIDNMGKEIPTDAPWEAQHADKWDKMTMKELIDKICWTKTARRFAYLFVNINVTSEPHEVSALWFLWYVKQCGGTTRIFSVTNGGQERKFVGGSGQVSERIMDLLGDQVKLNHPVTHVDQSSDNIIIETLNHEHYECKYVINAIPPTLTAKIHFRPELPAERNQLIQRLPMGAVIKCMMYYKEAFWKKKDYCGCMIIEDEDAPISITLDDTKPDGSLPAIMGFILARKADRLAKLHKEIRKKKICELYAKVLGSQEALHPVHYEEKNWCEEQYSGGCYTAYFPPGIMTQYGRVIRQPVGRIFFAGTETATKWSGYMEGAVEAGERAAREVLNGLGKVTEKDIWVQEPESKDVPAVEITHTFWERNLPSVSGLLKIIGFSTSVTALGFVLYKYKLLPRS
compound,measurement,setting,value
"COc1cc(SC(F)F)c(OC)cc1CCN [Compound I-8, 2-(4-((difluoromethyl)thio)-2,5-dimethoxyphenyl)ethan-1-amine]",concentration at 15 min,"[1]; brain, read-out: Brain 15 min",1900 nM
same,concentration at 160 min,[1]; [13],2200 nM
same,Kp at 160 min,[1]; 160 min after 3 mg/kg,74
same,concentration at 15 min,"[1]; plasma, read-out: Plasma, 15 min",300 nM
same,concentration at 160 min,[1]; [14],30 nM
same,HTR 15-25 min,"[2]; mice, 3 mg/kg s.c.",33.4
same,HTR 160-170 min,"[2]; mice, 3 mg/kg s.c.",17.4
same,inhibition at 0.1 µM,[3]; 100 nM,38%
same,inhibition at 1 µM,[3]; 1 uM,84%
same,EC50,[4],5.3 nM
same,2A/2B EC50 Selectivity,[4]; IP1 assay,12.8
same,Emax,"[4]; IP1 assay, relative to 5-HT",99%
same,EC50,[5],67.9 nM
same,Emax,"[5]; IP1 assay, relative to 5-HT",87%
same,affinity at 5-HT2A receptors (in words),[6],high affinity
same,Ki,"[6]; read-out: 5-HT2A, Ki, radioligand [3H]LSD",6.3 nM
COc1cc(OC)c(OC)cc1CCN [2C—O],activity after oral administration,[7],inactive
"[2H]C([2H])([2H])Oc1cc(SC(F)(F)F)c(OC([2H])([2H])[2H])cc1CCN [II-10, 2-(2,5-bis(methoxy-d3)-4-((trifluoromethyl)thio)phenyl)ethan-1-amine]","brain/plasma ratio, 160 min",[1]; 160 min after 3 mg/kg,24.4
same,concentration at 160 min,[1]; [13],8800 nM
same,Kp at 160 min,[1]; 160 min after 3 mg/kg,24 to 32
same,concentration at 160 min,[1]; [14],360 nM
same,HTR 15-25 min,[2]; measured 0-15 min,25.6 ##
same,half-life at 1 μM,[8],> 2 h
same,5-HT2AR agonist activity (in words),[4],pronounced agonists
same,half-life at 1 μM,[9],> 2 h
same,half-life at 1 μM,[10],0.988 h
same,half-life at 1 μM,[11],> 2 h
same,Ki,[6],35 nM
same,affinity at 5-HT2A receptors (in words),[6],superior affinity
same,Ki,"[6]; read-out: 5-HT2A, Ki, [3H]ketanserin, high-affinity active state",0.54 nM
same,half-life at 1 μM,[12],> 2 h
